Like-named read-outs stand apart in the source and are kept apart here.
How the values were obtained:
[1] = biological target: T1, human serotonin transporters (Homo sapiens, UniProt P31645); test: Serotonin Transporter Binding Assay ([3H]-citalopram displacement, HEK-hSERT cell membranes); conditions: 1 nM [3H]-citalopram, 1 hr at 25° C.
T1 construct: expressed in transfected cells; membrane homogenates
Experimental: HEK-293 cells that stably express human serotonin transporters (HEK-hSERT cells) were grown at 37° C. in 5% CO2 as a monolayer in medium consisting of EMEM supplemented with 10% fetal bovine serum and G418 sulfate (500 μg/mL). […] Cells were transferred from plates to polypropylene tubes (16×100 mm), centrifuged at 1,200×g for 5 min and were frozen at −80° C. until assay. Following centrifugation, pellets were resuspended by homogenization in buffer consisting of 50 mM Tris (pH 7.7 at 25° C.), 120 mM NaCl and 5 mM KCl and then centrifuged at 32,000×g for 10 min. Following centrifugation, supernatants were discarded and pellets were resuspended in buffer consisting of 50 mM Tris (pH 7.4 at 25° C.), 150 mM NaCl and 5 mM KCl. Membrane homogenates (200 μl/plate) were incubated with 1 nM [^3H]-citalopram (specific activity=85 Ci/mMol) and increasing concentrations of test compounds for 1 hr at 25° C. in a total volume of 250 μl. The assay buffer consisted of 50 mM Tris (pH 7.4 at 25° C.), 120 mM NaCl and 5 mM KCl (pH 7.4 with conc. HCl). Plates were incubated for 1 hr at 25° C., then filtered through 0.5% PEI treated Whatman GF/B filters using a Brandel cell harvester. Filters were washed three times with 3 mL of ice-cold tris wash buffer. Non-specific binding was defined with 10 μM fluoxetine. Amount of radioligand bound in the presence and absence of competitor was analyzed by plotting (−)log drug concentration versus the amount of radioligand specifically bound. The midpoint of the displacement curve (IC50, nM), signifies the potency.

[2] = biological target: T2, human norepinephrine transporters (Homo sapiens, UniProt P23975); test: Norepinephrine Transporter Binding Assay ([3H]-nisoxetine displacement, hNET cell membranes); conditions: 2.7 nM [3H]-nisoxetine, 1 hr at 4° C., read-out: NE reuptake binding Ki
T2 construct: the text also calls them 'HEK-hNET cells'); membrane homogenates
Experimental: MDCK cells that stably express human norepinephrine transporters (HEK-hNET cells) were supplied by Receptor Biology, Inc. Pellets were resuspended by homogenization in buffer consisting of 50 mM Tris (pH 7.4 at 25° C.), 120 mM NaCl and 5 mM KCl. Membrane homogenates (200 μl/well, 8 ug protein) were incubated with 2.7 nM [^3H]-nisoxetine (specific activity=80 Ci/mMol) and increasing concentrations of test compounds for 1 hr at 4° C. in a total volume of 250 μl. The assay buffer consisted of 50 mM Tris (pH 7.4 at 25° C.), 120 mM NaCl and 5 mM KCl (pH 7.4 with conc. HCl). Plates were incubated for 1 hr at 4° C., then filtered through 0.5% PEI treated Whatman GF/B filters using a Brandel cell harvester. Filters were washed three times with 3 mL of ice-cold tris wash buffer. Non-specific binding was defined with 10 μM desipramine. Amount of radioligand bound in the presence and absence of competitor was analyzed by plotting (−)log drug concentration versus the amount of radioligand specifically bound. The midpoint of the displacement curve (IC50, nM), signifies the potency. Ki values were calculated using the method of Cheng and Prusoff (1973).

[3] = read-out: 5-HT reuptake binding Ki

T2 sequence (P23975 whole entry): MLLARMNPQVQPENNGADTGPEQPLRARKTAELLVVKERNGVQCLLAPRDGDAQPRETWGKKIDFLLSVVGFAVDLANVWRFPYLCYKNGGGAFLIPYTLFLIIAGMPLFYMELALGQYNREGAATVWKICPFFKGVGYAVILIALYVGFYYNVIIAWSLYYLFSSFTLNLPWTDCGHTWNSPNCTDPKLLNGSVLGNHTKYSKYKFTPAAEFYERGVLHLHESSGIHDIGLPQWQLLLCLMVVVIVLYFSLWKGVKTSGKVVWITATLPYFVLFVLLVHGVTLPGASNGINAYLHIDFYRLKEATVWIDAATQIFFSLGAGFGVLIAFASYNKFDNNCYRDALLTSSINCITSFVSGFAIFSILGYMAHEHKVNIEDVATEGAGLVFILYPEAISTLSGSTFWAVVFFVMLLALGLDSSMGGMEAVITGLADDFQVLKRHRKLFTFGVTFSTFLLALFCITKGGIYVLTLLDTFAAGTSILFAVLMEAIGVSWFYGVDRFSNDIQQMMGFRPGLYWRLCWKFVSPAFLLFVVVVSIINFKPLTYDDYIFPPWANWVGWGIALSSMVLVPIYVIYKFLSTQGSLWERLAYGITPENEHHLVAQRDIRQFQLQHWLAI
T1 sequence (P31645 whole entry): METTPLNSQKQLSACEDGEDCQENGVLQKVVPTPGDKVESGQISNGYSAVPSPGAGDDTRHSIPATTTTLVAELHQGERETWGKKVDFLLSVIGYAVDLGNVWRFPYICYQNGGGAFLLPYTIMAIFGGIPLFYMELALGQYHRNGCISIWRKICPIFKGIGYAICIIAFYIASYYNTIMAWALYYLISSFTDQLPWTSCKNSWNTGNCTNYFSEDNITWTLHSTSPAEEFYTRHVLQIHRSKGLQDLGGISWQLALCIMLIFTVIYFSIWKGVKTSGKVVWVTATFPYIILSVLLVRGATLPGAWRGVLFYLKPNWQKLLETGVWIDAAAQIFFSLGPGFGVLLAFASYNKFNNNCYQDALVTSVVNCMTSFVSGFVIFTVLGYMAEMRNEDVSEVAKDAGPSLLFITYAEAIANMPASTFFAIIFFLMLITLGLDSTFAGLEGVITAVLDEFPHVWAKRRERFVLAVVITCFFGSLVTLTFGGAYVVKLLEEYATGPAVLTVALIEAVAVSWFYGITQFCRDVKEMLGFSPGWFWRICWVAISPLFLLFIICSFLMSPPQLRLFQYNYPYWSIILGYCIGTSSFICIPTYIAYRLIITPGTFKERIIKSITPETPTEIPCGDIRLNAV

| SMILES | Ki [1, 3] | Ki [2] | Ki ([1]; 5-HT reuptake binding Ki) |
| --- | --- | --- | --- |
| CN(C)C[C@H]1CCC[C@@H]1c1ccc2c(c1)c(C#N)cn2C (relative stereo) [Example 41, Trans-5-(2-dimethylaminomethyl-cyclopentyl)-1-methyl-1H-indole-3-carbonitrile] | 100 to 500 nM | > 1000 nM | – |
| CNC[C@@H]1CCC[C@@H]1c1ccc2[nH]cc(C#N)c2c1 (relative stereo) [Example 42, Cis-5-(methylaminomethyl-cyclopentyl)-1H-indole-3-carbonitrile] | 10 to 100 nM | 100 to 500 nM | – |
| CC([C@H]1CCCC1c1c[nH]c2ccc(C#N)cc12)N(C)C (single isomer, unassigned; diastereomer a) [Example 46, (+/−) trans-3-[2-(1-dimethylaminoethyl)cyclopentyl]-1H-indole-5-carbonitrile,diastereomer A] | – | > 1000 nM | < 1 nM |
| CN(C)C[C@@H]1CCC[C@H]1c1c[nH]c2ccc(C#N)cc12 (single isomer, unassigned; enantiomer a) [Example 44] | – | > 1000 nM | 10 to 100 nM |
| CN(C)C[C@H]1CCC[C@@H]1c1c[nH]c2ccc(C#N)cc12 (single isomer, unassigned; enantiomerb) [Example 45] | – | > 1000 nM | < 1 nM |

Reference: patent US7105516B2, “Compounds for the treatment of premature ejaculation” (Bristol-Myers Squibb Company, priority 2002, dated 2006)
